Test results as given in patent publication US11911386B2, “Methods of treating B-cell proliferative disorder” (BeiGene Switzerland GmbH, priority 2022, dated 2024).
Where “and” joins values, the source holds several entries; their conditions need not be identical. Equal values may be shown once. Read-outs that look alike come from different tables or passages of the source. Marks after values point to notes of the source that are not given here.

Tests used:
[1] = system: relapsed/refractory CLL/SLL; settings: for Duration of response events: death / Duration of response events: progressive disease / Duration of response: events: responders
[2] = Phase 1 DDI study: treatment-emergent adverse events; format: in vivo, human
Procedure: Safety was assessed by monitoring and recording of adverse events (AEs), serious adverse events (SAEs), clinical laboratory tests, physical examinations, and vital signs. […] A TEAE was defined as an AE that started during or after the first dose or started before the first dose and increased in severity after the first dose. AEs were classified based on MedDRA Version 24.0.
Safety and tolerability were assessed, when applicable, by incidence, severity, change from baseline values, and abnormal values for all relevant parameters such as AEs, laboratory parameters, vital signs, and physical examination.

[3] = cited from earlier work
[4] = multiple doses of a moderate CYP3A inhibitor; cited from earlier work
[5] = Phase 1 DDI study: single-dose zanubrutinib PK alone and with steady-state rifabutin (NCT04470908); format: in vivo, human; settings: for half-life: arithmetic mean (SD)
Description: This study was designed, conducted, and monitored according to sponsor procedures, and complied with the ethical principles of Good Clinical Practice, International Council for Harmonisation of Technical Requirements for Pharmaceuticals for Human Use, the Declaration of Helsinki, and local regulatory requirements. All volunteers provided written, informed consent before study entry. Midlands Independent Review Board (MLIRB (now WCG IRB), Overland Park, Kansas) reviewed and approved the protocol at the respective study center.
Volunteers were screened for eligibility during the screening period (from day −28 through day −2). Those who met all the inclusion criteria and none of the exclusion criteria were admitted into the clinical research unit (CRU) on day −1 and confined to the CRU until discharge on day 13. […] Volunteers were discharged on day 13 after satisfactory completion of study-related procedures.
A single dose of rifabutin (300 mg) was given orally as 2×150 mg capsules with food on days 3-10 and in the fasted state on day 11.
Noncompartmental analysis was conducted using Phoenix® WinNonlin™ version 8.1 (Certara USA, Inc., Princeton, New Jersey, USA).
Protein precipitation was utilized to extract the analyte and internal standard from human plasma containing dipotassium ethylenediaminetetraacetic acid (K2EDTA) as an anticoagulant.
The geometric least squares mean (GLSM) and their ratios were obtained by taking the exponential of the corresponding estimates of LSM and their differences on the natural logarithm scale, where ratio=test/reference. Within-subject CV was calculated as 100×square root[exp(mean square error from the analysis model)−1].

[6] = IRC assessed, ITT, Table 15 data cut-off
[7] = IRC assessed, ITT, final analysis
[8] = IRC assessed, del(17p)/TP53 mutation, final analysis
[9] = investigator assessed, ITT, Table 15 data cut-off
[10] = investigator assessed, ITT, final analysis
[11] = investigator assessed, del(17p)/TP53 mutation, final analysis
[12] = coadministration with itraconazole
[13] = 320 mg zanubrutinib + 300 mg rifabutin (test)
[14] = 320 mg zanubrutinib + 300 mg rifabutin, median (min-max)

Question: What does the source list for `C=CC(=O)N1CCC([C@@H]2CCNc3c(C(N)=O)c(-c4ccc(Oc5ccccc5)cc4)nn32)CC1` [zanubrutinib, (S)-7-(1-acryloylpiperidin-4-yl)-2-(4-phenoxyphenyl)-4,5,6,7-tetrahydropyrazolo[1,5-a]pyrimidine-3-carboxamide]?
Answer: 24-month event-free rate, duration of response (95% CI) ([1]; IRC assessed): 77.4 (71.0-82.5) %; Median duration of response (95% CI) ([1]; IRC assessed): had not yet been reached; Best response CR or CRi [1, 6]: 13 (4.0) n (%); Best response PD [1, 6]: 3 (0.9) n (%); Best response PR or nPR [1, 6]: 250 (76.5) n (%); Best response PR-L [1, 6]: 33 (10.1) n (%); Best response SD [1, 6]: 20 (6.1) n (%); Discontinue prior to first assessment, NA or NE [1, 6]: 8 (2.4) n (%); ORR (95% CI) [1, 6]: 80.4† (75.7, 84.6) %; Best response CR or CRi [1, 7]: 22 (6.7) n (%); Best response PD [1, 7]: 3 (0.9) n (%); Best response PR or nPR [1, 7]: 260 (79.5) n (%); Best response PR-L [1, 7]: 18 (5.5) n (%); Best response SD [1, 7]: 16 (4.9) n (%); Discontinue prior to first assessment, NA or NE [1, 7]: 8 (2.4) n (%); ORR [1, 7]: 86.2%; Best response CR or CRi [1, 8]: 6 (8.0) n (%); Best response PD [1, 8]: 1 (1.3) n (%); Best response PR or nPR [1, 8]: 58 (77.3) n (%); Best response PR-L [1, 8]: 4 (5.3) n (%); Best response SD [1, 8]: 3 (4.0) n (%); Discontinue prior to first assessment, NA or NE [1, 8]: 3 (4.0) n (%); ORR [1, 8]: 85.3%; Median duration of response (95% CI) ([1]; IRC assessed, listed as Zanubrutinib): NE (31.3, NE); Duration of response events: death ([1]; IRC assessed): 20 (7.1) n (%); Duration of response events: progressive disease ([1]; IRC assessed): 40 (14.2) n (%); Duration of response: events ([1]; IRC assessed): 60 (21.3) n (%); Treatment discontinuation due to progressive disease ([1]; ITT): 7.3%; PFS HR (95% CI), zanubrutinib over ibrutinib ([1]; accounting for drug interruption (ITT), independent review): 0.71 (0.53, 0.95); PFS HR (95% CI), zanubrutinib over ibrutinib ([1]; accounting for drug interruption (ITT), investigator assessment): 0.71 (0.52, 0.96); PFS HR (95% CI), zanubrutinib over ibrutinib ([1]; alternative censoring rules (ITT), independent review): 0.63 (0.48, 0.84); PFS HR (95% CI), zanubrutinib over ibrutinib ([1]; alternative censoring rules (ITT), investigator assessment): 0.65 (0.49, 0.87); Deaths ([1]; final analysis data cut-off): 48 n; PFS HR (95% CI), zanubrutinib over ibrutinib ([1]; in vivo): 0.62 (0.46, 0.84) and 0.62 (0.45, 0.84); Treatment-failure event-free rate at 24 months ([1]; in vivo): 79.9%; 24-month event-free rate, duration of response (95% CI) ([1]; investigator assessed): 79.5 (73.1-84.6) %; Median PFS ([1]; investigator assessed): not reached; Median duration of response (95% CI) ([1]; investigator assessed): had not yet been reached; PFS rate at 24 months ([1]; investigator assessed): 78.4%; Patients with disease progression or death ([1]; investigator assessed): 87 patients; Rate of partial response with lymphocytosis or better ([1]; investigator assessed, ITT): 89.9%; Best response CR or CRi [1, 9]: 16 (4.9) n (%); Best response PD [1, 9]: 1 (0.3) n (%); Best response PR or nPR [1, 9]: 244 (74.6) n (%); Best response PR-L [1, 9]: 32 (9.8) n (%); Best response SD [1, 9]: 25 (7.6) n (%); Discontinue prior to first assessment, NA or NE [1, 9]: 9 (2.8) n (%); ORR (95% CI) [1, 9]: 79.5* (74.7, 83.8) %; Best response CR or CRi [1, 10]: 23 (7.0) n (%); Best response PD [1, 10]: 1 (0.3) n (%); Best response PR or nPR [1, 10]: 250 (76.5) n (%); Best response PR-L [1, 10]: 21 (6.4) n (%); Best response SD [1, 10]: 23 (7.0) n (%); Discontinue prior to first assessment, NA or NE [1, 10]: 9 (2.8) n (%); ORR [1, 10]: 83.5%; Best response CR or CRi [1, 11]: 5 (6.7) n (%); Best response PD [1, 11]: 0 n (%); Best response PR or nPR [1, 11]: 56 (74.7) n (%); Best response PR-L [1, 11]: 6 (8.0) n (%); Best response SD [1, 11]: 5 (6.7) n (%); Discontinue prior to first assessment, NA or NE [1, 11]: 3 (4.0) n (%); ORR [1, 11]: 81.3%; Median duration of response (95% CI) ([1]; investigator assessed, listed as Zanubrutinib): NE (31.3, NE); Duration of response events: death ([1]; investigator assessed): 20 (7.3) n (%); Duration of response events: progressive disease ([1]; investigator assessed): 33 (12.1) n (%); Duration of response: events ([1]; investigator assessed): 53 (19.4) n (%); PD detected by decrease in platelet count ([1]; investigator assessment, ITT): 0; PD detected by increase in lymph nodes ([1]; investigator assessment, ITT): 40 (12.2); PD detected by new enlarged lymph nodes ([1]; investigator assessment, ITT): 3 (0.9); PD detected by new or increase in splenomegaly ([1]; investigator assessment, ITT): 8 (2.4); PD detected by new symptomatic disease ([1]; investigator assessment, ITT): 3 (0.9); Patients with disease transformation ([1]; investigator assessment, ITT): 5 (1.5); Patients with progressive disease ([1]; investigator assessment, ITT): 54 (16.5); PFS HR (95% CI), zanubrutinib over ibrutinib ([1]; per protocol population (N = 646), independent review): 0.64 (0.48, 0.85); PFS HR (95% CI), zanubrutinib over ibrutinib ([1]; per protocol population (N = 646), investigator assessment): 0.64 (0.48, 0.85); General disorders and administration site conditions TEAE ([2]; N = 13): 1 (7.7) n (%); Overall TEAEs ([2]; N = 13): 1 (7.7) n (%); Vessel puncture site hematoma TEAE ([2]; N = 13): 1 (7.7) n (%); Tolerability ([2]; single 320 mg dose alone or with 300 mg rifabutin, healthy volunteers): well tolerated; Increase in zanubrutinib AUC0-∞ [3, 12]: 3.8 fold; Increase in zanubrutinib Cmax [3, 12]: 2.6 fold; Decrease in zanubrutinib AUC0-∞ ([3]; coadministration with rifampin): 13.5 fold; Decrease in zanubrutinib Cmax ([3]; coadministration with rifampin): 12.6 fold; Exposure change ([3]; coadministration with rifampin): 13 fold; Increase in zanubrutinib Cmax and AUC [4]: 2- to 3 fold and 2 to 3 fold; AUC0-t GLSM ([5]; 320 mg zanubrutinib (reference)): 2700 ng·h/mL; AUC0-t GLSM [5, 13]: 1530 ng·h/mL; Cmax GLSM [5, 13]: 253 ng/mL; Tlast [5, 14]: 36.0 (24.0-36.0) [13] h; Tmax [5, 14]: 2.0 h; Tlast ([5]; 320 mg zanubrutinib alone, median (min-max)): 36.0 (24.0-36.0) [13] h; AUC(0-t) ([5]; human, plasma, oral, 320 mg): 2700 ng·h/mL; Cmax ([5]; human, plasma, oral, 320 mg): 489 ng/mL; Vd/F ([5]; human, plasma, oral, 320 mg): 1080 L; AUC(0-inf) ([5]; human, plasma, oral, 320 mg zanubrutinib + 300 mg rifabutin (test), read-out: AUC0-∞ GLSM): 1560 ng·h/mL; half-life ([5]; human, plasma, oral, 320 mg zanubrutinib + 300 mg rifabutin): 7 h; AUC(0-inf) ([5]; human, plasma, oral, 320 mg zanubrutinib + 300 mg rifabutin, geometric mean (CV), read-out: AUC0-∞): 1590 ng·h/mL; AUC(0-inf) ([5]; human, plasma, oral, 320 mg, 320 mg zanubrutinib (reference), read-out: AUC0-∞ GLSM): 2780 ng·h/mL; half-life ([5]; human, plasma, oral, 320 mg, 320 mg zanubrutinib alone): 7.2 h; AUC(0-inf) ([5]; human, plasma, oral, 320 mg, 320 mg zanubrutinib alone, geometric mean (CV), read-out: AUC0-∞): 2780 ng·h/mL; Tmax ([5]; human, plasma, oral, 320 mg, read-out: Tmax): 1.5 h; AUC0-t within-subject CV ([5]; in vivo): 10.7%; AUC0-∞ within-subject CV ([5]; in vivo): 7.0%; Cmax within-subject CV ([5]; in vivo): 23.2%; Reduction in zanubrutinib exposure ([5]; with moderate CYP3A inducer, e.g. rifabutin): approximately 2 fold; GMR (exposure) ([5]; with vs without rifabutin): 57%
